Results reported in patent US8975263B2, “Phenylxanthene derivatives” (Daiichi Sankyo Company, Limited, priority 2013, dated 2015).

Test system: C57BL/6J mice
Assay: Oral glucose tolerance test
Format: in vivo
Conditions: male C57BL/6J mice, fasted overnight, oral gavage 10 mg/kg, glucose 3 g/kg orally 30 minutes after compound, area under the curve of blood glucose level relative to control group
Description: Commercially available mice (C57BL/6J mice; male; 8 to 12 weeks old when used; distributed by Charles River Laboratories Japan, Inc.) were used.
After acclimatization with freely feeding (FR-2, Funabashi Farm Co., Ltd.) for one week or more, the mice were fasted overnight and then used for the test. A 0.5% methylcellulose (Wako Pure Chemical Industries, Ltd.) solution (0.5% MC) containing a test compound at a concentration of 1 mg/ml and a mixed solution (PG:Tween) of propylene glycol (80 v/v %, Nacalai Tesque, Inc.) and Tween 80 (20 v/v %, Nacalai Tesque, Inc.) containing a test compound at a concentration of 2 mg/ml were prepared for administration to the mice. The prepared solution was administered by oral gavage to four or five mice in each group at a dose of 10 mg/kg as the test compound. For a control group, a 0.5% methylcellulose solution (dose: 10 ml/kg) or a mixed solution of propylene glycol and Tween 80 (dose: 5 ml/kg) was orally administered to mice. An oral glucose tolerance test was carried out by administering a glucose solution (Otsuka Glucose Solution 50%; Otsuka Pharmaceutical Factory, Inc.) orally at a dose of 3 g/kg to the mice 30 minutes after administration of the test compound.
Blood was collected from the tail vein of each mouse immediately before administration of the test compound (T0), […] after administration of the test compound (T1), and 30 minutes (T2) and 90 minutes (T3) after oral glucose loading. The blood glucose level was measured using a blood glucose level measuring apparatus (ACCU-CHEK Aviva; Roche Diagnostics, K.K.). The blood glucose level T1 was analyzed as a value obtained 30 minutes after administration of the compound and immediately before glucose loading. According to the following formula, the area under the curve of blood glucose level was calculated, and thereafter, the blood glucose lowering rate (%) was calculated as a value relative to the control group. The area under the curve of blood glucose level=[(blood glucose level T0+blood glucose level T1)×30]÷2+[(blood glucose level T1+blood glucose level T2)×30]÷2+[(blood glucose level T2+blood glucose level T3)×60]÷2 Blood glucose lowering rate(%)=[1−(the area under the curve of blood glucose level for the test compound group/the area under the curve of blood glucose level for the control group)]×100

| SMILES | Blood glucose lowering rate (%) (solvent PG:Tween) | Blood glucose lowering rate (%) (solvent 0.5% MC) |
| --- | --- | --- |
| COc1ccc(-c2ccnc(C(N)=O)n2)c(C)c1C1C2=C(CC(C)(C)CC2=O)OC2=C1C(=O)CC(C)(C)C2 [Example 75, 4-[4-Methoxy-2-methyl-3-(3,3,6,6-tetramethyl-1,8-dioxo-2,3,4,5,6,7,8,9-octahydro-1H-xanthen-9-yl)phenyl]pyrimidine-2-carboxylic acid amide] | 35 |  |
| COc1ccc(-c2ccnc(CO)n2)c(C)c1C1C2=C(CC(C)(C)CC2=O)OC2=C1C(=O)CC(C)(C)C2 [Example 76, 9-{3-[2-(Hydroxymethyl)pyrimidin-4-yl]-6-methoxy-2-methylphenyl}-3,3,6,6-tetramethyl-3,4,5,6,7,9-hexahydro-1H-xanthene-1,8(2H)-dione] |  | 33 |
